Reference: PubChem BioAssay AID330 (DTP/NCI, 2004)
Where “and” joins values, the source holds several entries; their conditions need not be identical. Equal values may be shown once. Toxic doses and inconclusive results are not listed.

Tested on: P388 leukemia ip, CD2F1 mice, survival T/C
Assay: NCI In Vivo Anticancer Drug Screen. Data for tumor model P388 Leukemia (intraperitoneal) in CD2F1 (CDF1) mice
Settings: endpoint: median survival time, higher = longer survival
Method in brief: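 Mice carrying the transplanted tumor received test compound or vehicle. Survival was recorded in each group, and the value is the treated-group measurement divided by that of the vehicle-treated control group.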

[1] = dose: 60.0 mg/kg/injection, schedule: Q01DX005 (ip), vehicle: Klucel (hydroxypropylcellulose) (HPC)
[2] = dose: 120.0 mg/kg/injection, schedule: Q01DX005 (ip), vehicle: Klucel (hydroxypropylcellulose) (HPC)
[3] = dose: 60.0 mg/kg/injection, schedule: Q01DX005 (ip), vehicle: saline with Tween-80
[4] = dose: 120.0 mg/kg/injection, schedule: Q01DX005 (ip), vehicle: saline with Tween-80
[5] = dose: 240.0 mg/kg/injection, schedule: Q01DX005 (ip), vehicle: saline with Tween-80
[6] = dose: 50.0 mg/kg/injection, schedule: Q01DX005 (ip), vehicle: Klucel (hydroxypropylcellulose) (HPC)
[7] = dose: 100.0 mg/kg/injection, schedule: Q01DX005 (ip), vehicle: Klucel (hydroxypropylcellulose) (HPC)
[8] = dose: 200.0 mg/kg/injection, schedule: Q01DX005 (ip), vehicle: Klucel (hydroxypropylcellulose) (HPC)
[9] = dose: 100.0 mg/kg/injection, schedule: Q04DX002 (ip), vehicle: saline with Tween-80
[10] = dose: 400.0 mg/kg/injection, schedule: Q04DX002 (ip), vehicle: saline with Tween-80

For `CC1CN1c1cc(O)c(N2CC2C)cc1O` (stereo not drawn), the T/C (dose: 0.29 mg/kg/injection, schedule: Q01DX009 (ip), vehicle: saline with Tween-80) was 100 % of control, the T/C (dose: 0.44 mg/kg/injection, schedule: Q01DX009 (ip), vehicle: saline with Tween-80) was 118 % of control and the T/C (dose: 0.63 mg/kg/injection, schedule: Q04DX003 (ip), vehicle: saline with Tween-80) was 109 % of control. For the same compound, the T/C (dose: 0.66 mg/kg/injection, schedule: Q01DX009 (ip), vehicle: saline with Tween-80) was 122 % of control, the T/C (dose: 2.5 mg/kg/injection, schedule: Q04DX003 (ip), vehicle: saline with Tween-80) was 150 % of control and the T/C (dose: 4.4 mg/kg/injection, schedule: Q04DX003 (ip), vehicle: saline with Tween-80) was 228 % of control. The T/C (dose: 5.0 mg/kg/injection, schedule: Q04DX003 (ip), vehicle: saline with Tween-80) was 159 % of control and the T/C (dose: 6.6 mg/kg/injection, schedule: Q04DX003 (ip), vehicle: saline with Tween-80) was 238 % of control.
`CN(C)C(=S)NCc1ccccc1` was tested, and the T/C (dose: 100.0 mg/kg/injection, schedule: Q04DX003 (ip), vehicle: saline with Tween-80) was 100 % of control and the T/C (dose: 200.0 mg/kg/injection, schedule: Q04DX003 (ip), vehicle: saline with Tween-80) was 100 % of control.
In the case of `CCOC(=O)c1nnc(-c2ccccc2)nc1Cl`, the T/C [1] is reported as 103 % of control and the T/C [2] is reported as 100 % of control.
For `C=CCNC(=S)NNC(=O)CNC(c1ccc(OC)cc1)C(CC)c1ccc(OC)cc1` (stereo not drawn), the T/C (dose: 100.0 mg/kg/injection, schedule: Q01DX001 (ip), vehicle: saline with Tween-80) was 99 % of control and the T/C (dose: 200.0 mg/kg/injection, schedule: Q01DX001 (ip), vehicle: saline with Tween-80) was 110 % of control.
For `COC(=O)/C=N/Nc1ccc(C)cc1`, the T/C (dose: 25.0 mg/kg/injection, schedule: Q01DX009 (ip), vehicle: other) was 89 % of control, the T/C (dose: 50.0 mg/kg/injection, schedule: Q01DX009 (ip), vehicle: other) was 86 % of control and the T/C (dose: 100.0 mg/kg/injection, schedule: Q01DX009 (ip), vehicle: other) was 96 % of control. For the same compound, the T/C (dose: 200.0 mg/kg/injection, schedule: Q01DX009 (ip), vehicle: other) was 103 % of control and the T/C (dose: 400.0 mg/kg/injection, schedule: Q01DX009 (ip), vehicle: other) was 108 % of control.
In the case of `COc1ccc(C2NC(C(=O)O)CS2)cc1OC` (stereo not drawn), the T/C (dose: 50.0 mg/kg/injection, schedule: Q01DX009 (ip), vehicle: suspension in saline) is reported as 95 % of control, the T/C (dose: 100.0 mg/kg/injection, schedule: Q01DX009 (ip), vehicle: suspension in saline) is reported as 95 % of control and the T/C (dose: 200.0 mg/kg/injection, schedule: Q01DX009 (ip), vehicle: suspension in saline) is reported as 87 % of control and 97 % of control.
`Cc1nn(-c2ccccc2)nc1C(=O)Nc1ccc2[nH]ncc2c1` was tested, and the T/C [3] was 91 % of control, the T/C [4] was 94 % of control and the T/C [5] was 86 % of control.
In the case of `Cc1cc(NC(=O)c2ccc(N)cc2)ccc1N=Nc1ccc2c(O)c(N=Nc3ccc(S(=O)(=O)O)cc3C)c(S(=O)(=O)O)cc2c1`, the T/C (dose: 50.0 mg/kg/injection, schedule: Q01DX005 (ip), vehicle: saline with Tween-80) is reported as 100 % of control and the T/C (dose: 100.0 mg/kg/injection, schedule: Q01DX005 (ip), vehicle: saline with Tween-80) is reported as 90 % of control.
For `CCc1cccc(CC)c1N1C(=O)COCC1=O`, the T/C (dose: 6.25 mg/kg/injection, schedule: Q01DX009 (ip), vehicle: saline) was 96 % of control, the T/C (dose: 12.5 mg/kg/injection, schedule: Q01DX009 (ip), vehicle: saline) was 93 % of control and the T/C (dose: 25.0 mg/kg/injection, schedule: Q01DX009 (ip), vehicle: saline) was 92 % of control. The T/C (dose: 100.0 mg/kg/injection, schedule: Q01DX009 (ip), vehicle: saline) was 100 % of control and the T/C (dose: 200.0 mg/kg/injection, schedule: Q01DX009 (ip), vehicle: saline) was 100 % of control.
For `CN(C)C=C1C(=O)CCCC1=O`, the T/C (dose: 60.0 mg/kg/injection, schedule: Q01DX005 (ip), vehicle: saline) was 105 % of control and the T/C (dose: 120.0 mg/kg/injection, schedule: Q01DX005 (ip), vehicle: saline) was 117 % of control.
In the case of `O=C(O)C12CCC(c3ccccc31)c1ccccc12`, the T/C [3] is reported as 101 % of control, the T/C [4] is reported as 107 % of control and the T/C [5] is reported as 100 % of control.
`COC(=O)C1=NNC2(c3ccccc3Sc3ccccc32)C1C(=O)OC` (stereo not drawn) was tested, and the T/C [6] was 90 % of control, the T/C [7] was 92 % of control and the T/C [8] was 90 % of control.
With `CCCn1c2nc(=O)[nH]c(=O)c-2cc2ccccc21` the T/C (dose: 10.0 mg/kg/injection, schedule: Q01DX009 (ip), vehicle: saline with Tween-80) was 105 % of control, the T/C (dose: 20.0 mg/kg/injection, schedule: Q01DX009 (ip), vehicle: saline with Tween-80) was 103 % of control and the T/C (dose: 40.0 mg/kg/injection, schedule: Q01DX009 (ip), vehicle: saline with Tween-80) was 113 % of control.
`CC(=O)Oc1cc(OCCCc2ccc(F)cc2)cc2ccc3ccccc3c12` was tested, and the T/C [9] was 92 % of control and the T/C [10] was 92 % of control.
In the case of `COC(=O)C1C(O)C(C)C(O)OC1C(C)C(O)C(C)/C=C\C=C(/C)C(=O)Nc1c(C)c(OC(C)=O)c2c(c1O)C(=O)C(C)=C1OCOC(/C(C)=C/C(C)=O)=C12` (stereo not drawn), the T/C (dose: 12.5 mg/kg/injection, schedule: Q01DX009 (ip), vehicle: Klucel (hydroxypropylcellulose) (HPC)) is reported as 103 % of control, the T/C (dose: 25.0 mg/kg/injection, schedule: Q01DX005 (ip), vehicle: Klucel (hydroxypropylcellulose) (HPC)) is reported as 106 % of control and the T/C (dose: 25.0 mg/kg/injection, schedule: Q01DX009 (ip), vehicle: Klucel (hydroxypropylcellulose) (HPC)) is reported as 108 % of control. The T/C [6] was 113 % of control, the T/C (dose: 50.0 mg/kg/injection, schedule: Q01DX009 (ip), vehicle: Klucel (hydroxypropylcellulose) (HPC)) was 112 % of control and the T/C [7] was 113 % of control. For the same compound, the T/C (dose: 100.0 mg/kg/injection, schedule: Q01DX009 (ip), vehicle: Klucel (hydroxypropylcellulose) (HPC)) was 108 % of control and the T/C [8] was 118 % of control.
In the case of `COC(=O)C1CC=CCC1C(=O)OC` (stereo not drawn), the T/C [9] is reported as 107 % of control, the T/C (dose: 200.0 mg/kg/injection, schedule: Q04DX002 (ip), vehicle: saline with Tween-80) is reported as 106 % of control and the T/C [10] is reported as 100 % of control.
With `O=C1C2=C(OCCO2)C(=O)C2=C1OCO2` the T/C [3] was 109 % of control, the T/C [4] was 107 % of control and the T/C [5] was 88 % of control.
In the case of `COc1cccc2c1C(=O)c1c(O)c3c(c(O)c1C2=O)C[C@@](O)(C(C)=O)C[C@@H]3OC1CC([N+]([O-])(Cc2ccccc2)Cc2ccccc2)C(O)C(C)O1` (stereo partly drawn), the T/C (dose: 3.13 mg/kg/injection, schedule: Q04DX003 (ip), vehicle: distilled water + Tween-80) is reported as 114 % of control, the T/C (dose: 6.25 mg/kg/injection, schedule: Q04DX003 (ip), vehicle: distilled water + Tween-80) is reported as 108 % of control and 121 % of control and the T/C (dose: 12.5 mg/kg/injection, schedule: Q04DX003 (ip), vehicle: distilled water + Tween-80) is reported as 123 % of control. For the same compound, the T/C (dose: 25.0 mg/kg/injection, schedule: Q04DX003 (ip), vehicle: distilled water + Tween-80) was 150 % of control and 183 % of control, the T/C (dose: 50.0 mg/kg/injection, schedule: Q04DX003 (ip), vehicle: distilled water + Tween-80) was 185 % of control and 212 % of control and the T/C (dose: 100.0 mg/kg/injection, schedule: Q04DX003 (ip), vehicle: distilled water + Tween-80) was 237 % of control.
For `C/C(=C\Cl)COC1CCCCO1` (stereo not drawn), the T/C (dose: 50.0 mg/kg/injection, schedule: Q01DX009 (ip), vehicle: saline with Tween-80) was 122 % of control and the T/C (dose: 100.0 mg/kg/injection, schedule: Q01DX009 (ip), vehicle: saline with Tween-80) was 122 % of control.
In the case of `COc1ccc(C(c2cc(C(C)(C)C)c(O)c(C(C)(C)C)c2)n2ccnc2)cc1` (stereo not drawn), the T/C (dose: 50.0 mg/kg/injection, schedule: Q01DX005 (ip), vehicle: distilled water + alcohol) is reported as 105 % of control, the T/C (dose: 100.0 mg/kg/injection, schedule: Q01DX005 (ip), vehicle: distilled water + alcohol) is reported as 103 % of control and the T/C (dose: 200.0 mg/kg/injection, schedule: Q01DX005 (ip), vehicle: distilled water + alcohol) is reported as 99 % of control.
For `COc1ccc2c(c1)NC(C(C)C)=NS2(=O)=O`, the T/C [1] was 99 % of control, the T/C [2] was 95 % of control and the T/C (dose: 240.0 mg/kg/injection, schedule: Q01DX005 (ip), vehicle: Klucel (hydroxypropylcellulose) (HPC)) was 97 % of control.
In the case of `Cc1ccc(C)c(NC(=O)C#N)c1`, the T/C [3] is reported as 93 % of control.
With `CS/C(=C(\C#N)C(N)=O)N1CC1` the T/C (dose: 25.0 mg/kg/injection, schedule: Q04DX002 (ip), vehicle: DMSO) was 94 % of control, the T/C (dose: 50.0 mg/kg/injection, schedule: Q04DX002 (ip), vehicle: DMSO) was 100 % of control and the T/C (dose: 100.0 mg/kg/injection, schedule: Q04DX002 (ip), vehicle: DMSO) was 102 % of control and 95 % of control. For the same compound, the T/C (dose: 200.0 mg/kg/injection, schedule: Q04DX002 (ip), vehicle: DMSO) was 100 % of control.
